# According to ChEMBL document CHEMBL4616643, “Cytotoxic and anti-inflammatory effects of lignans and diterpenes from Cupressus macrocarpa” (Bioorg Med Chem Lett, 2020):
# What was measured:
# MDA-MB-231 = assay: Antiproliferative activity against human MDA-MB-231 cells assessed as inhibition of cell viability by MTT assay; assay type: functional, cell-based
# A549 = assay: Antiproliferative activity against human A549 cells assessed as inhibition of cell viability by MTT assay; assay type: functional, cell-based
# Neutrophil [1] = assay: Anti-inflammatory activity against human neutrophils assessed as inhibition of fMLF/CB-induced superoxide anion generation preincubated for 5 mins followed by fMLF addition after priming with CB for 3 mins and measured after 10 mins by spectrophotometric analysis; assay type: functional, cell-based
# Neutrophil [2] = assay: Anti-inflammatory activity against human neutrophils assessed as inhibition of fMLF/CB-induced superoxide anion generation at 10 uM preincubated for 5 mins followed by fMLF addition after priming with CB for 3 mins and measured after 10 mins by spectrophotometric analysis relative to control; assay type: functional
# Neutrophil [3] = assay: Anti-inflammatory activity against human neutrophils assessed as inhibition in fMLF/CB-induced elastase release at 10 uM preincubated for 5 mins followed by fMLF addition after priming with CB for 3 mins and measured after 10 mins by spectrophotometric analysis relative to control; assay type: functional
# HepG2 = assay: Antiproliferative activity against human HepG2 cells assessed as inhibition of cell viability by MTT assay; assay type: functional, cell-based
# Neutrophil [4] = assay: Anti-inflammatory activity against human neutrophils assessed as inhibition of fMLF/CB-induced elastase release preincubated for 5 mins followed by fMLF addition after priming with CB for 3 mins and measured after 10 mins by spectrophotometric analysis; assay type: functional, cell-based
# [5] = Homo sapiens, MDA-MB-231, read-out: IC50
# [6] = Homo sapiens, A549, read-out: IC50
# [7] = Homo sapiens, HepG2, read-out: IC50
IC50 (MDA-MB-231; [5]) [µg/mL],IC50 (A549; [6]) [µg/mL],SMILES,inhibition at 10 µM (Neutrophil [2]) [%],inhibition at 10 µM (Neutrophil [3]) [%],other results
14.8,8.9,C=C1CC[C@@H]2[C@](C)(CCC[C@]2(C)C(=O)O)[C@H]1CC/C(C)=C/COC(C)=O,–,–,–
–,–,C=C1CC[C@H]2[C@@](C)(CO)CCC[C@]2(C)[C@H]1CC/C(C)=C/CO,50.7,22.3,IC50 (Neutrophil [1]): 9.6 µM
14.1,–,C=C(C=O)CC[C@H]1C(=C)CC[C@@H]2[C@]1(C)CCC[C@]2(C)C(=O)O,–,–,–
19.9,19.8,C=C(CC[C@H]1C(=C)CC[C@H]2[C@@](C)(CO)CCC[C@]12C)C(=O)CO,–,–,–
14.8,–,C=C(C=O)CC[C@H]1C(=C)CC[C@@H]2[C@]1(C)CCC[C@@]2(C)O,–,–,–
–,–,C=C1CC[C@@H]2[C@](C)(CO)CCC[C@@]2(C)[C@@H]1CCC(C)=O,33.5,15.7,–
1.1,0.8,COc1cc(C[C@H]2C(=O)OC[C@@H]2Cc2ccc(OC)c(OC)c2)ccc1O [ARCTIGENIN],–,–,IC50 (HepG2; [7]): 2.8 µg/mL
0.6,0.057,COc1cccc2c1C(=O)c1c(O)c3c(c(O)c1C2=O)C[C@@](O)(C(=O)CO)C[C@@H]3O[C@H]1C[C@H](N)[C@H](O)[C@H](C)O1 [DOXORUBICIN],–,–,–
–,–,C=C1CC[C@@H]2[C@](C)(CCC[C@]2(C)C(=O)O)[C@H]1CC/C(C)=C/CO [ISOCUPRESSIC ACID],78,19.9,IC50 (HepG2; hepg2): Not Active; IC50 (MDA-MB-231; mda-mb-231): Not Active; IC50 (A549; a549): Not Active; IC50 (Neutrophil [1]): 4.8 µM
–,–,COc1cc(C[C@H]2COC(=O)[C@@H]2Cc2ccc(O)c(OC)c2)ccc1O [MATAIRESINOL],95.2,61.9,IC50 (HepG2; [7]): 15.1 µg/mL; IC50 (Neutrophil [1]): 2.7 µM; IC50 (Neutrophil [4]): 6.6 µM

SMILES,IC50 (MDA-MB-231; [5]) [µg/mL],IC50 (A549; [6]) [µg/mL],inhibition at 10 µM (Neutrophil [2]) [%],inhibition at 10 µM (Neutrophil [3]) [%],other results
COc1cc([C@@H]2c3cc4c(cc3C[C@H]3COC(=O)[C@@H]32)OCO4)cc(OC)c1OC [DESOXYPODOPHYLLOTOXIN],0.07,0.004,–,–,IC50 (HepG2; [7]): 14.5 µg/mL
